Results: PubChem BioAssay (NCI)
Several values for one entry are separate records, joined by “and”; a condition that tells them apart may be missing. Equal entries are not always repeated.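 All cell lines were grown in 96-well plates and treated with compound for 48 hours. GI50 = concentration required for 50% inhibition of growth. TGI: concentration producing complete growth inhibition.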

Columns and labels:
Experiment in all cases: NCI tumour cell line growth inhibition, 48 h
[1] = test system: K-562 leukemia
[2] = test system: KM12 colon
[3] = test system: MCF7 breast
[4] = test system: NCI-H226 lung
[5] = test system: OVCAR-5 ovarian
[6] = test system: RPMI-8226 leukemia
[7] = test system: SF-268 CNS
[8] = test system: SK-MEL-2 melanoma
[9] = test system: SN12C renal
[10] = test system: UACC-257 melanoma

SMILES	TGI [1]	TGI [2]	TGI [3]	TGI [4]	TGI [5]	TGI [6]	TGI [7]	TGI [8]	TGI [9]	TGI [10]	GI50 [1]	GI50 [2]	GI50 [3]	GI50 [4]	GI50 [5]	GI50 [6]	GI50 [7]	GI50 [8]	GI50 [9]	GI50 [10]
CC(=O)OC1C(O)C(C)OC(OC2C(OC(=O)C3CCC4C(C3)OC3(CC(OC(=O)/C=C/c5ccccc5)C(C)CO3)C43CO3)OC(C)C(O)C2OC(C)=O)C1O (centres undefined)	0.241 µM	0.0562 µM	0.0825 µM	0.0522 µM	0.144 µM	0.0945 µM	0.0499 µM	0.0189 µM	0.125 µM	0.0811 µM										
Cn1c2c(c3ccccc31)CCN1C[C@@H]3CCCC[C@H]3C[C@@H]21	> 36 µM	9.97 µM	> 72.8 µM	> 26.1 µM	> 100 µM	> 26.3 µM	> 40.2 µM	> 26.7 µM	> 100 µM	> 100 µM	2070 nM	2970 nM	3170 nM	2.75 µM	3820 nM	3060 nM	3.22 µM	5.8 µM	3.82 µM	8.14 µM
COc1ccc(C2=C(c3ccccc3)C(=O)N3CCCC3C2)cc1 (centres undefined)	> 100 µM	> 100 µM	> 100 µM	> 100 µM	> 100 µM	> 100 µM	> 100 µM	> 100 µM	> 100 µM	> 100 µM	89.3 nM	3010 nM	2980 nM		> 100000 nM	318 nM	26 µM	23.8 µM	13 µM	> 49 µM
O=C(O)CN1C(=O)OC(c2ccccc2)C1=O (centres undefined)	> 100 µM	> 100 µM	> 100 µM	> 100 µM	> 100 µM	> 100 µM	> 100 µM	> 100 µM	> 100 µM	> 100 µM										
CC(C)[C@@]12C[C@@H](OC(=O)COC(=O)c3ccccc3)[C@@](C)(O1)[C@@H]1CC[C@@H](C)[C@H]1[C@@H]2OC(=O)/C=C/c1ccccc1	> 100 µM	> 100 µM	> 100 µM	> 100 µM	> 100 µM	> 100 µM	> 100 µM	> 100 µM	> 100 µM	> 100 µM	62700 nM	> 100000 nM	> 65000 nM	18.7 µM	> 100000 nM	82100 nM		> 100 µM	7.35 µM	> 100 µM
O=C1NC(c2ccc3ccccc3c2)Nc2ccccc21 (centres undefined)	7.04 µM	> 100 µM	> 100 µM	> 100 µM		69.8 µM	> 100 µM	> 100 µM		> 100 µM										
CC(C)(C)N1CC1CNC(=O)C(=O)NCC1CN1C(C)(C)C (centres undefined)	15 µM	12.3 µM	> 100 µM	18.7 µM	7.56 µM	> 18.3 µM	15.4 µM	10.2 µM	15.7 µM	11.1 µM										
CC(C)n1cc(-c2ccc3c(c2)N(C)CC3)c2c(NS(=O)(=O)c3ccn(C)n3)ccnc21	> 100 µM	> 100 µM	> 100 µM	> 100 µM	> 100 µM	> 100 µM	> 100 µM	> 100 µM	> 100 µM	> 100 µM	79900 nM	47900 nM	31500 nM	39.4 µM	> 100000 nM	54200 nM	62 µM	56.6 µM	91.8 µM	> 100 µM
CC[C@]12C=CCN3CC[C@]4(C(=C(C(=O)OC)C1)Nc1cc5c(cc14)[C@@H]1[C@H](O5)[C@@H](O)[C@@]4(CC)CC(C(=O)OC)=C5Nc6ccccc6[C@@]56CCN1[C@@H]46)[C@@H]32		8.41 µM and 5.92 µM	25 µM and 26.6 µM	25 µM	25 µM and 21.3 µM	2.49 µM and 1.5 µM	19.7 µM and 54.5 µM	25 µM and > 100 µM	25 µM and 33.5 µM	25 µM and 42.8 µM	129 nM and 276 nM	760 nM and 471 nM	144 nM and 275 nM	0.688 µM	749 nM and 826 nM	141 nM and 234 nM	1.15 µM and 1.2 µM	1.13 µM and 1.18 µM	0.464 µM and 0.499 µM	0.582 µM and 0.672 µM
O=C(Cc1cc(O)ccc1O)NO	45.8 µM	> 100 µM	34.9 µM	> 100 µM	34.1 µM	40 µM	> 100 µM	> 100 µM	33.8 µM	> 100 µM	21200 nM	> 100000 nM	16500 nM	70 µM	18700 nM	19000 nM	> 100 µM	> 100 µM	18.2 µM	59.9 µM
NC(=O)c1c[nH]c2ncnc(N)c12	> 100 µM	> 100 µM	> 100 µM	> 100 µM	> 100 µM	50.7 µM	> 100 µM	> 100 µM	> 100 µM	> 100 µM	93900 nM	24800 nM	45400 nM	67.3 µM	> 100000 nM	14400 nM	39.3 µM	47.2 µM	71.6 µM	> 100 µM
CC(C)C[C@H](NC(=O)[C@@H](Cc1ccccc1)n1ccc(Nc2ccccc2)cc1=O)B(O)O	> 100 µM	1.51 µM	14.6 µM	0.348 µM	8.34 µM	3.87 µM	2.31 µM	1.59 µM	6.94 µM	2.48 µM	477 nM	375 nM	374 nM	0.164 µM	1700 nM	154 nM	0.385 µM	0.316 µM	0.73 µM	0.404 µM
O=C1CCc2cc(Br)ccc2O1	> 100 µM		> 100 µM	> 100 µM	> 100 µM	> 100 µM	> 100 µM	> 100 µM	> 100 µM	> 100 µM										
O=C(/C=C(/C=C/c1cccc2[nH]ccc12)OB(F)F)/C=C/c1cccc2[nH]ccc12	> 100 µM	2.54 µM	9.45 µM	5.59 µM	3.59 µM	2.55 µM	3.98 µM	5.63 µM	5.45 µM	11.8 µM	423 nM	949 nM	436 nM	1.87 µM	1420 nM	354 nM	1.13 µM	2.09 µM	0.687 µM	2.15 µM
